For this experiment, the target named is T1, Indoleamine 2,3-dioxygenase (Homo sapiens, UniProt P14902).
T1 construct: endogenous in cells; host or cells: SKOV-3 (ATCC HTB-77), stimulated with interferon gamma
The experiment in a line: SKOV-3 cellular Indoleamine 2,3-dioxygenase assay. As to conditions: SKOV-3 cells, 50 ng/ml Interferon gamma, 100 μM L-Tryptophan, 24 hours, N-Formylkynurenin fluorescence detection; read-out: cell based activity. A digest of the protocol: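 SKOV-3 cells stimulated with 50 ng/ml interferon gamma, exposed to compound dilutions with L-tryptophan at 100 µM final for 24 h at 37 °C. N-formylkynurenine detected by 200 mM 3-methylpiperidine, 65 °C for 20 min, fluorescence ex 405/em 535 nm.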

Structures are written as SMILES. Where only a bound is given, the exact number is not on record here.

T1 sequence (P14902 whole entry): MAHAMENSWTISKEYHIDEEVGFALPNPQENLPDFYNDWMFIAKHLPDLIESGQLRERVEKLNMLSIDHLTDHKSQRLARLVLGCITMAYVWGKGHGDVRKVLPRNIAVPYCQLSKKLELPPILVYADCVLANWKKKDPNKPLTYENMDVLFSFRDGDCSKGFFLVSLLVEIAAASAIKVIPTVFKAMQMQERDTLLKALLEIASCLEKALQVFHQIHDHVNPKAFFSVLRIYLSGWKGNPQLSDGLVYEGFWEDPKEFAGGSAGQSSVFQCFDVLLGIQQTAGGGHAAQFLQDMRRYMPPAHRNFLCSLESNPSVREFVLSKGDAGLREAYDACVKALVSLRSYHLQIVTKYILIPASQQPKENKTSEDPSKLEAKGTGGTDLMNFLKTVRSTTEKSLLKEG

For the molecule `NC(=O)C(F)(F)C(=O)NCCSc1nonc1C(=NO)Nc1ccc(F)c(C(F)F)c1` [Example 118], the IC50 was less than 100 nM.

For `NC(=O)CC(=O)NCCSc1nonc1C(=NO)Nc1ccc(F)c(C(F)F)c1` [Example 119], the IC50 was less than 100 nM.

Turning to `CS(=N)(=O)NCCSc1nonc1C(=NO)Nc1ccc(F)c(Cl)c1` (stereo not drawn) [Example 120], the IC50 is less than 100 nM.

As for `CS(=O)(=O)Nc1ccc(C(=O)NCCSc2nonc2C(=NO)Nc2ccc(F)c(Cl)c2)cn1` [Example 121, N-(2-((4-(N-(3-Chloro-4-fluorophenyl)-N′-hydroxycarbamimidoyl)-1,2,5-oxadiazol-3-yl)thio)ethyl)-6-(methylsulfonamido)nicotinamide], the IC50 was in the range of 100 to 1000 nM.

On to `CS(=N)(=O)c1ccc(C(=O)NCCSc2nonc2C(=NO)Nc2ccc(F)c(C(F)F)c2)cc1` (stereo not drawn) [Example 122, N-(2-((4-(N-(3-(Difluoromethyl)-4-fluorophenyl)-N′-hydroxycarbamimidoyl)-1,2,5-oxadiazol-3-yl)thio)ethyl)-4-(S-methylsulfonimidoyl)benzamide], for which the IC50 was less than 100 nM.

Regarding `O=C(NCCSc1nonc1C(=NO)Nc1ccc(F)c(Cl)c1)C1(O)CNC1` [Example 123, N-(2-((4-(N-(3-Chloro-4-fluorophenyl)-N′-hydroxycarbamimidoyl)-1,2,5-oxadiazol-3-yl)thio)ethyl)-3-hydroxyazetidine-3-carboxamide], the IC50 lay within 100 to 1000 nM.

Turning to `CCN1CC(O)(C(=O)NCCSc2nonc2C(=NO)Nc2ccc(F)c(C(F)(F)F)c2)C1` [Example 124, 1-Ethyl-N-(2-((4-(N-(4-fluoro-3-(trifluoromethyl)phenyl)-N′-hydroxycarbamimidoyl)-1,2,5-oxadiazol-3-yl)thio)ethyl)-3-hydroxyazetidine-3-carboxamide], the IC50 was less than 100 nM.

Take `CN1CCC1C(=O)NCCSc1nonc1C(=NO)Nc1ccc(F)c(C(F)F)c1` (stereo not drawn) [Example 124/1, N-(2-((4-(N-(3-(Difluoromethyl)-4-fluorophenyl)-N′-hydroxycarbamimidoyl)-1,2,5-oxadiazol-3-yl)thio)ethyl)-1-methylazetidine-2-carboxamide]: the IC50 was less than 100 nM.

Consider `N#CC1(C(=O)NCCSc2nonc2C(=NO)Nc2ccc(F)c(C(F)F)c2)CNC1` [Example 125, 3-Cyano-N-(2-((4-(N-(3-(difluoromethyl)-4-fluorophenyl)-N′-hydroxycarbamimidoyl)-1,2,5-oxadiazol-3-yl)thio)ethyl)azetidine-3-carboxamide], for which the IC50 was 100 to 1000 nM.

For `NC(=O)C1(C(=O)NCCSc2nonc2C(=NO)Nc2ccc(F)c(C(F)F)c2)CNC1` [Example 126], the IC50 lay within 100 to 1000 nM.

`CS(=N)(=O)CC(=O)NCCSc1nonc1/C(=N/O)Nc1ccc(F)c(Br)c1` (stereo not drawn) [Example 127, N-(2-((4-(N-(3-Bromo-4-fluorophenyl)-N′-hydroxycarbamimidoyl)-1,2,5-oxadiazol-3-yl)thio)ethyl)-2-(S-methylsulfonimidoyl)acetamide]: the IC50 is less than 100 nM.

For `NS(=O)(=O)NCC(=O)NCCSc1nonc1/C(=N/O)Nc1ccc(F)c(C(F)F)c1` [Example 128, N-(2-((4-(N-(3-(Difluoromethyl)-4-fluorophenyl)-N′-hydroxycarbamimidoyl)-1,2,5-oxadiazol-3-yl)thio)ethyl)-2-(sulfamoylamino)acetamide], the IC50 was less than 100 nM.

These data come from US11078168B2, “Substituted N-hydroxyamidinoheterocycles as modulators of indoleamine 2,3-dioxygenase” (PHENEX DISCOVERY VERWALTUNGS-GMBH, priority 2016, dated 2021).
